For experiment [1], the system named is LNCaP prostate cancer cells (PTEN null, androgen receptor positive). The experiment is classed as in vivo. Conditions: castrated mice.
Experiment [2] concerns VCAP prostate tumour cell line. In words: Proliferation assay, Sytox Green endpoint, live cell number after 5 days (VCAP). The experiment is classed as cell-based. The settings on record: VCAP cells; monotherapy or with MDV-3100 0.1 μM to 10 μM; n=3. On the procedure: (§1) The LNCaP and VCAP prostate tumour cell lines (American Tissue Culture Collection) were routinely cultured in RMPI supplemented with 10% FCS and 2 mM L-glutamine. To determine the effect of AZD5363 and MDV-3100, either as a monotherapy or in combination, on cell growth, a proliferation assay was performed using the Sytox Green endpoint to measure live cell number after 5 days. […] Cells were then dosed with increasing concentrations of AZD5363 (0.01-1 μM), MDV-3100 (0.1-10 μM) or a combination of each agent in a 6×6 matrix format. After 5-day exposure to compound, Sytox Green nucleic acid dye (Invitrogen) diluted in TBS-EDTA (TBS=Tris-buffered saline, EDTA=ethylenediaminetetraacetic acid) buffer was added to cells at a final concentration of […] and the number of dead cells detected using an Acumen Explorer. Cells were then permeabilised by the addition of saponin (0.03% final concentration, diluted in TBS-EDTA buffer), incubated overnight and a total cell count measured. The live cell count was then determined by subtracting the number of dead cells per well from the total number of cells. […] The data is presented as % growth using the NCI formulae as follows: [(Ti-Tz)/(C-Tz)]×100 for concentrations for which Ti>/=Tz [(Ti-Tz)/Tz]×100 for concentrations for which Ti<Tz. […] Synergism of the drug combination was evaluated using a unified approach described by C. […]

The test system of experiment [3] is LNCaP prostate tumour cell line. In words: Proliferation assay, Sytox Green endpoint, live cell number after 5 days (LNCaP). The settings on record: LNCaP cells; monotherapy or with MDV-3100 0.1 μM to 10 μM; n=3. In kind it is cell-based. As to the method:
as §1

The values below come from US9737540B2, “Combination treatment of cancer” (ASTRAZENECA AB, priority 2011, dated 2017).

Read-outs that look alike come from different tables or passages of the source.

Consider `CC(O)(CS(=O)(=O)c1ccc(F)cc1)C(=O)Nc1ccc(C#N)c(C(F)(F)F)c1` (stereo not shown) [bicalutamide, N-[4-cyano-3-(trifluoromethyl)-phenyl]-3-[(4-fluorophenyl)-sulfonyl]-2-hydroxy-2-methylpropanamide, reference compound], for which, in experiment [1] (bicalutamide monotherapy 50 mg/kg qd), the “inhibition of tumour volume” value is reported as 42%.
On to `NC1(C(=O)N[C@@H](CCO)c2ccc(Cl)cc2)CCN(c2ncnc3[nH]ccc23)CC1` [AZD5363, (S)-4-amino-N-(1-(4-chlorophenyl)-3-hydroxypropyl)-1-(7H-pyrrolo[2,3-d]pyrimidin-4-yl)piperidine-4-carboxamide], for which, in experiment [1] (AZD5363 monotherapy 100 mg/kg bd, 5 days on, 2 days off), the “inhibition of tumour volume” value is 56%. Further, in experiment [2], the “Effect on cell growth (mean % growth, FIG. 2)” value is listed as “can inhibit the growth of VCAP cells as a monotherapy”. Besides, in experiment [3], the “Effect on cell growth / cell death (mean % growth, FIG. 1)” value is “can inhibit the growth of LNCaP cells and induce cell death as a monotherapy”.
